Results from patent EP4752152A1, “STEROID COMPOUND, AND PREPARATION METHOD THEREFOR AND USE THEREOF” (Cholesgen (Shanghai) Co.Ltd., priority 2023, dated 2025).

Tested on: SREBP pathway
Assay: SREBP luciferase reporter gene system (SRE-luciferase assay)
Assay type: cell-based, human
Conditions: Homo sapiens, Huh-7, 16 h, Huh-7/SRE-luc cells, sterol-deficient medium, 0.01-10 µM
Procedure, shortened: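 Readout was SRE-driven luciferase normalised to GFP fluorescence in lysates of stably transfected Huh-7/SRE-luc hepatoma cells. Compounds (0.01, 0.03, 0.1, 0.3, 1.0, 3.0, 10 µM; DMSO control) were applied for 16 h in sterol-depleted medium with 2 µM lovastatin and 10 µM mevalonate; IC50 from variable-slope fit.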

`COc1cccc(F)c1[C@H](O)CCC[C@@H](C)[C@H]1CC[C@H]2[C@H]3[C@H](CC[C@]12C)[C@@]1(C)CC[C@H](O)C[C@@H]1CC3(F)F` (single isomer, unassigned) [Compound 315] and `C[C@H](CCC[C@H](O)c1nnnn1C)[C@H]1CC[C@H]2[C@H]3[C@H](CC[C@]12C)[C@@]1(C)CC[C@H](O)C[C@@H]1CC3(F)F` (single isomer, unassigned) [Compound 380] are within 1.5-fold of each other in IC50: 0.125 µM for the first, 0.152 µM for the second.

`C[C@H](CCC[C@@H](O)c1nnnn1C)[C@H]1CC[C@H]2[C@H]3[C@H](CC[C@]12C)[C@@]1(C)CC[C@H](O)C[C@@H]1CC3(F)F` (single isomer, unassigned) [Compound 381] and `C[C@H](CCC[C@@H](O)c1n[nH]c2ccccc12)[C@H]1CC[C@H]2[C@H]3[C@H](CC[C@]12C)[C@@]1(C)CC[C@H](O)[C@H](O)[C@@H]1CC3(F)F` (stereo in doubt) [Compound 320, (1R,3aS,3bS,5aR,6R,7S,9aR,9bS,11aR)-4,4-difluoro-1-[(2R,6R)-6-hydroxy-6-(1H-indazol-3-yl)hexan-2-yl]-9a,11a-dimethylhexadecahydro-1H-cyclopenta[1,2-a]phenanthrene-6,7-diol] are within 1.5-fold of each other in IC50: 0.285 µM for the first, 0.207 µM for the second.

`COc1ccnc(C[C@@H](O)CCC[C@@H](C)[C@H]2CC[C@H]3[C@H]4[C@H](CC[C@]23C)[C@@]2(C)CC[C@H](O)[C@H](O)[C@@H]2CC4(F)F)c1` (stereo in doubt) [Compound 304, (1R,3aS,3bS,5aR,6R,7S,9aR,9bS,11aR)-4,4-difluoro-1-[(2R,6S)-6-hydroxy-7-(4-methoxypyridin-2-yl)heptan-2-yl]-9a,11a-dimethylhexadecahydro-1H-cyclopenta[1,2-a]phenanthrene-6,7-diol] and `COc1ccnc(C[C@H](O)CCC[C@@H](C)[C@H]2CC[C@H]3[C@H]4[C@H](CC[C@]23C)[C@@]2(C)CC[C@H](O)[C@H](O)[C@@H]2CC4(F)F)c1` (stereo in doubt) [Compound 305, (1R,3aS,3bS,5aR,6R,7S,9aR,9bS,11aR)-4,4-difluoro-1-[(2R,6R)-6-hydroxy-7-(4-methoxypyridin-2-yl)heptan-2-yl]-9a,11a-dimethylhexadecahydro-1H-cyclopenta[1,2-a]phenanthrene-6,7-diol] are within 1.5-fold of each other in IC50: 0.243 µM for the first, 0.253 µM for the second.

Going from `C[C@H](CCCC(O)c1ccccc1OC(F)(F)F)[C@H]1CC[C@H]2C3=C(F)C[C@H]4[C@@H](O)[C@@H](O)CC[C@]4(C)[C@H]3CC[C@]12C` (stereo partly drawn) [Compound 2, (1R,3aR,5aR,6R,7S,9aR,9bR,11aR)-4-fluoro-1-[(2R)-6-hydroxy-6-{2-[(trifluoromethyl)oxy]phenyl}hexan-2-yl]-9a,11a-dimethyl-2,3,3a,5,5a,6,7,8,9,9a,9b,10,11,11a-tetradecahydro-1H-cyclopenta[1,2-a]phenanthrene-6,7-diol] to `C[C@H](CCCC(O)c1ccccc1F)[C@H]1CC[C@H]2C3=C(F)C[C@H]4[C@@H](O)[C@@H](O)CC[C@]4(C)[C@H]3CC[C@]12C` (stereo partly drawn) [Compound 4, (1R,3aR,5aR,6R,7S,9aR,9bR,11aR)-4-fluoro-1-[(2R)-6-(2-fluorophenyl)-6-hydroxyhexan-2-yl]-9a,11a-dimethyl-2,3,3a,5,5a,6,7,8,9,9a,9b,10,11,11a-tetradecahydro-1H-cyclopenta[1,2-a]phenanthrene-6,7-diol], the IC50 falls from 0.45 µM to 0.09 µM (5-fold).

Going from `COc1cccc(C(O)CCC[C@@H](C)[C@H]2CC[C@H]3[C@@H]4CC[C@H]5[C@@H](O)[C@@H](O)CC[C@]5(C)[C@H]4CC[C@]23C)c1` (stereo partly drawn) [Compound 5, 24-[hydroxy(3-methoxyphenyl)methyl]-5α-cholane-3β,4β-diol] to `COc1ccccc1C(CCC[C@@H](C)[C@H]1CC[C@H]2[C@@H]3CC[C@H]4[C@@H](O)[C@@H](O)CC[C@]4(C)[C@H]3CC[C@]12C)OC` (stereo partly drawn) [Compound 22, 24-[methoxy(2-methoxyphenyl)methyl]-5α-cholane-3β,4β-diol], the IC50 rises from 0.13 µM to 2.01 µM (15-fold). The first is the more potent here.

First: C[C@H](CCN(C)C(=O)c1ccccc1F)[C@H]1CC[C@H]2[C@@H]3CC[C@@]4(C)[C@@H](O)[C@@H](O)CC[C@]4(C)[C@H]3CC[C@]12C [Compound 15A, 2-fluoro-N-[(3R)-3-[(1R,3aS,3bS,5aR,6R,7S,9aR,9bS,11aR)-6,7-dihydroxy-5a,9a,11a-trimethylhexadecahydro-1H-cyclopenta[1,2-a]phenanthren-1-yl]butyl]-N-methylbenzamide]
Second: C[C@H](CCC(=O)N(C)c1ccccc1F)[C@H]1CC[C@H]2[C@@H]3CC[C@H]4[C@@H](O)[C@@H](O)CC[C@]4(C)[C@H]3CC[C@]12C [Compound 47, (3S,4R,5R,8S,9S,10R,13R,14S,17R,20R)-N-(2-fluorophenyl)-3,4-dihydroxy-N-methyl-5α-cholan-24-amide]
The IC50 of the first is 7.4-fold higher: 0.37 µM for the first, 0.05 µM for the second.

`COc1cccc(C(O)CCC[C@@H](C)[C@H]2CC[C@H]3C4=C(F)C[C@H]5[C@@H](O)[C@@H](O)CC[C@]5(C)[C@H]4CC[C@]23C)c1` (stereo partly drawn) [Compound 40, (1R,3aR,5aR,6R,7S,9aR,9bR,11aR)-4-fluoro-1-[(2R)-6-hydroxy-6-(3-methoxyphenyl)hexan-2-yl]-9a,11a-dimethyl-2,3,3a,5,5a,6,7,8,9,9a,9b,10,11,11a-tetradecahydro-1H-cyclopenta[1,2-a]phenanthrene-6,7-diol] and `C[C@H](CCCC(O)c1cccc(F)c1)[C@H]1CC[C@H]2C3=C(F)C[C@H]4[C@@H](O)[C@@H](O)CC[C@]4(C)[C@H]3CC[C@]12C` (stereo partly drawn) [Compound 45, (1R,3aR,5aR,6R,7S,9aR,9bR,11aR)-4-fluoro-1-[(2R)-6-(3-fluorophenyl)-6-hydroxyhexan-2-yl]-9a,11a-dimethyl-2,3,3a,5,5a,6,7,8,9,9a,9b,10,11,11a-tetradecahydro-1H-cyclopenta[1,2-a]phenanthrene-6,7-diol] are within 1.5-fold of each other in IC50: 0.25 µM for the first, 0.198 µM for the second.

Same assay, conditions: Huh-7/SRE-luc cells, sterol-deficient medium, 16 hours, 0.01-10 µM

First: C[C@H](CCCC(O)c1cccc2nn[nH]c12)[C@H]1CC[C@H]2[C@H]3[C@H](CC[C@]12C)[C@@]1(C)CC[C@H](O)[C@H](O)[C@@H]1CC3(F)F (single isomer, unassigned) [Compound 295, (1R,3aS,3bS,5aR,6R,7S,9aR,9bS,11aR)-4,4-difluoro-1-[(2R,6R)-6-hydroxy-6-(3H-benzo[d][1,2,3]triazol-4-yl)hexan-2-yl]-9a,11a-dimethylhexadecahydro-1H-cyclopenta[1,2-a]phenanthrene-6,7-diol or (1R,3aS,3bS,5aR,6R,7S,9aR,9bS,11aR)-4,4-difluoro-1-[(2R,6S)-6-hydroxy-6-(3H-benzo[d][1,2,3]triazol-4-yl)hexan-2-yl]-9a,11a-dimethylhexadecahydro-1H-cyclopenta[1,2-a]phenanthrene-6,7-diol]
Second: C[C@H](CCC[C@@H](O)c1cc2ccccc2o1)[C@H]1CC[C@H]2[C@H]3[C@H](CC[C@]12C)[C@@]1(C)CC[C@H](O)[C@H](O)[C@@H]1CC3(F)F (stereo in doubt) [Compound 317, (1R,3aS,3bS,5aR,6R,7S,9aR,9bS,11aR)-1-[(2R,6R)-6-(1-benzofuran-2-yl)-6-hydroxyhexan-2-yl]-4,4-difluoro-9a,11a-dimethylhexadecahydro-1H-cyclopenta[1,2-a]phenanthrene-6,7-diol]
The IC50 of the first is 1.8-fold higher: 0.275 µM for the first, 0.155 µM for the second.

Molecule `C[C@H](CCN(C)C(=O)c1ccccc1F)[C@H]1CC[C@H]2[C@@H]3CC[C@@]4(C)[C@@H](O)[C@@H](O)CC[C@]4(C)[C@H]3CC[C@]12C` [Compound 15B, 2-fluoro-N-[(3R)-3-[(1R,3aS,3bS,5aR,6R,7S,9aR,9bS,11aR)-6,7-dihydroxy-5a,9a,11a-trimethylhexadecahydro-1H-cyclopenta[1,2-a]phenanthren-1-yl]butyl]-N-methylbenzamide] has an IC50 of 0.32 µM.
